Measurements published in patent US20030082200A1, “52 kda protein from coagulase negative staphylococci and fragments thereof” (priority 2000, published 2003).

Columns and labels:
[1] = tested on: immobilized Vn binding to S. epidermidis strain BD5703; assay: Inhibition test: binding of 3H-labeled bacteria to Vn coated wells; type: cell-based, Staphylococcus epidermidis; conditions: for Effect on BD5703 binding of immobilized Vn (in words): component added at the same time as bacteria
Experimental: (§1) ^3H-labeled bacteria were used for these tests. In brief, half a milliliter of an overnight cultured bacteria in TH broth was diluted in 5 ml TH broth containing 50 μCi of [methyl-^3H]thymidine (Amersham Plc., Buckinghamshire, UJK) and cultured for 5 hours at 37° C. on a gyrator shaker with vigorous agitation.
In another experiment, 50 μl bacteria (2×10^7cfu/ml) were mixed with the same volume of four mono-carbohydrates (0.1M D-fucose, 0.1M D-galactose, 0.1M D-glucose and 0.1M D-mannose), heparin (2 mg/ml), hyaluronic acid (2 mg/ml) or Vn (20 μg/ml). These mixtures with bacteria were incubated for 1 hour at 37° C. Heparin sodium salt and hyaluronic acid were purchased from Fluka Chemie AG, Buchs, Switzerland)
(§2) Finally, all wells were washed by PBS 5 times, individual wells were removed and immersed in 2.5 ml scintillation fluid (BDH chemicals, Pool, UK) and the radioactivity was counted in a liquid scintillation counter (Beckman Instruments, Fullerton, Calif., USA). Quantitation of relative binding percentage was achieved by the radioactivity from experimental groups in relation to the radioactivity from non-treated group.

52 kDa protein of BD5703 = assay: Autoradiograph inhibition test: labeled Vn binding to blotted surface proteins; design: species or system Staphylococcus epidermidis; conditions: competing proteins 10 μg/ml; heparin, hyaluronic acid 1 mg/ml; autoradiography
Experimental: (§3) SDS-PAGE was performed on mini-Protean II cell (Bio-Rad, Richmond, Calif.) as previously described (16). The bacterial surface structures were extracted by 1M lithium chloride (pH 5) with protease inhibitor (Boehringer Mannheim, Mannheim, Germany) at 37° C. for 2 hours with end to end rotation. Extract was subjected to homogenous gel (12%) or gradient gel (4-15%) electrophoresis. The running and transfer conditions were as previously described (17).
(§4) The PDVF membranes (Micron Separations INC., Westborough, USA) were saturated with incubation in blocking buffers I and II (buffer I containing 0.6% ethanolamine, 0.9% glycine, 1% polyvinylpyrrolidone and 25% methanol pH 9.6; buffer II containing 0.6% ethanolamine, 0.9% glycine, 0.05% gelatin hydrolysate and 0.125% Tween 20 pH 9.6) for 15 min respectively (18). Saturated membranes were rinsed three times in PBST (PBS with 1% Tween 20). Then, the membranes were incubated with ^125I-labeled Vn (0.4 μg/ml) in PBST or in PBST supplemented with 1.05 M sodium chloride (final sodium chloride concentration 1.2M) overnight at 20° C. The membranes were washed and dried, then examined by autoradiography with X-Omat AR film (Eastman Kodak) after 3 days storage at −70° C.
(§5) For inhibition tests, the membrane with retained bacterial surface molecules was cut to individual strips, and then incubated with labeled Vn (0.4 μg/ml) in PBST mixed with different unlabeled competing molecules, including Vn (10 μg/ml), fibronectin (10 μg/ml), fibrinogen (10μg/ml), thrombospondin ([…]), plasminogen (10 μg/ml), human immunoglobulins (10 μg/ml), hemopexin (10 μg/ml), heparin (1 mg/ml). In a separate experiment, the strips were preincubated with heparin (1 mg/ml) and hyaluronic acid (1 mg/ml) for 1 hour at 20° C. prior to adding labeled Vn.

16 kDa protein of BD5703 = assay: as above; design: species or system Staphylococcus epidermidis; conditions: competing proteins 10 μg/ml; heparin, hyaluronic acid 1 mg/ml; autoradiography
Experimental: as §3, §4, §5

38 kDa protein of BD5703 = assay: as above; design: species or system Staphylococcus epidermidis; conditions: competing proteins 10 μg/ml; heparin, hyaluronic acid 1 mg/ml; autoradiography
Experimental: as §3, §4, §5

21 kDa protein of BD5703 = assay: as above; design: species or system Staphylococcus epidermidis; conditions: competing proteins 10 μg/ml; heparin, hyaluronic acid 1 mg/ml; autoradiography
Experimental: as §3, §4, §5

[2] = tested on: immobilized Vn binding to S. epidermidis strain BD5703; assay: Inhibition test: binding of 3H-labeled bacteria to Vn coated wells; type: cell-based, Staphylococcus epidermidis
[3] = tested on: S. epidermidis strain BD5703; assay: Bacterial binding of soluble 125I-labeled Vn; design: species or system Staphylococcus epidermidis; conditions: less than 5% is considered as negative binding
Experimental: (§6) Fifty micrograms of Vn was labeled with Na ^125I (Amersham Plc., Buckinghamshire, UK) using the modified chloramine-T method (specificity, 1×10^6 cpm/μg), and used in a minor modified soluble binding test with final reaction volume of 150 μl in PBS (15). During binding experiments, radiolabeled protein were diluted to approx. 0.025 μg (25,000cpm) and incubated with bacteria (10^9 cells per test tube). In an alternative method, cells of BD5703 were immobilized on ELISA plates (Costar Co., Cambridge, USA) by incubating 100 μl of bacterial suspension (2×10^7 cells in PBS) for 30 min at 37° C. Non-attached bacteria were removed by 3 washes with PBS. The remaining sites on the plastic were blocked by 2%, a bovine serum albumin in PBS (BSA-PBS) for 1 hour at 37° C. The wells were washed with PBS, and two-fold diluted ^125I-labeled Vn in 1% BSA-PBS (maximally 5 μg/ml) was added. Wells coated with 1% BSA served as background. After incubation at 37° C. for 45 min and washes with PBS, individual wells were removed and the radioactivity was measured in a gamma counter (LKB-Wallac, Turku, Finland).

BD5703 surface proteins = assay: Autoradiograph inhibition test: labeled Vn binding to blotted surface proteins; design: species or system Staphylococcus epidermidis; conditions: unlabeled Vn 10 μg/ml; autoradiography
Experimental: as §3, §4, §5

[4] = tested on: immobilized S. epidermidis strain BD5703; assay: Binding of soluble 125I-labeled Vn to cells immobilized on ELISA plate wells; design: species or system Staphylococcus epidermidis; conditions: two-fold diluted 125I-Vn, maximally 5 μg/ml; FIG. 1
Experimental: as §6

S. aureus strain V8 = assay: Bacterial binding of soluble 125I-labeled Vn; design: species or system Staphylococcus aureus; conditions: reference strain V8
Experimental: as §6

immobilized Vn = assay: Trypsin treatment of Vn-coated wells, binding assay with 3H labeled bacteria; type: cell-based; conditions: trypsin 2 μg/well, 37° C. for 2 hours
Experimental: The wells pre-adsorbed with Vn were trypsinized at a concentration of 2 μg/well in PBS with 1 mM CaCl2 (37° C. for 2 hours) following an additional incubation with soybean trypsin inhibitor (4 μg/well) at 37° C. for 30 min in same buffer (15). The wells were then blocked by BSA and subjected to binding assay with ^3H labeled bacteria.

S. epidermidis BD5703 = assay: Proteolytic treatment of bacterial cells, binding of immobilized Vn; type: cell-based, Staphylococcus epidermidis; conditions: BD5703 cells treated with protease; non-treated control = 100
Experimental: as §1
(§7) 3H-labeled bacteria cells (5×10^8) were suspended in 1 ml PBS heated at 100° C. for 30 min and rapidly cooled. The same amount of bacteria was treated by pronase E, protease K and trypsin (Sigma Chemical Co., St. Louis, USA) as previously described (15). After washes in PBS, 100 μl (1×10^7 cells) treated bacterial suspension were added into the Vn coated wells.
as §2

S. aureus V8 = assay: as above; type: cell-based, Staphylococcus aureus; conditions: V8 cells treated with protease; non-treated control = 100
Experimental: as §1, §7, §2

[5] = inhibitor 1 mg/ml, added at the same time as bacteria

C[C@@H](O)[C@H](O)[C@H](O)[C@@H](O)C=O [D-fucose]
Effect on BD5703 binding of immobilized Vn (in words) [1]: not by carbohydrates

O=C[C@H](O)[C@@H](O)[C@@H](O)[C@H](O)CO [D-galactose]
Effect on BD5703 binding of immobilized Vn (in words) [1]: not by carbohydrates

O=C[C@H](O)[C@@H](O)[C@H](O)[C@H](O)CO [D-glucose]
Effect on BD5703 binding of immobilized Vn (in words) [1]: not by carbohydrates

O=C[C@@H](O)[C@@H](O)[C@H](O)[C@H](O)CO [D-mannose]
Effect on BD5703 binding of immobilized Vn (in words) [1]: not by carbohydrates

Heparin sodium salt [Heparin 1]
Inhibition of labeled Vn binding to the 52 kDa band (52 kDa protein of BD5703): almost erase | Inhibition of labeled Vn binding to the 16 kDa band (16 kDa protein of BD5703): almost erase | Inhibition of labeled Vn binding to the 38 kDa band (38 kDa protein of BD5703): almost erase | Inhibition of labeled Vn binding to the 21 kDa band (21 kDa protein of BD5703): not 21 kDa | Effect on BD5703 binding of immobilized Vn (in words) ([2]; component preincubated with Vn coated wells): increased the binding | Relative binding percentage ([2]; inhibitor 1 mg/ml, preincubated with Vn coated wells for 2 hours, then bacteria added): 135% | Inhibitory ability compared to hyaluronic acid ([1]; added at the same time as bacteria): more than 2 fold | Effect on BD5703 binding of immobilized Vn (in words) [1]: reduced significantly | Relative binding percentage [1, 5]: 18%

Soluble Vn: human vitronectin, purified; glycoprotein; also used 125I-labeled
Level of binding of radioactively labeled Vn in solution [3]: more than 5% | Inhibition of binding of labeled Vn to BD5703 surface proteins (BD5703 surface proteins): could be inhibited | Binding of 125I-Vn to immobilized cells [4]: dose-related manner | Level of binding of radioactively labeled Vn in solution (S. aureus strain V8): 14.2% | Relative binding percentage ([1]; inhibitor 10 μg/ml, added at the same time as bacteria, control without inhibitor = 100): 40% | Inhibition of binding of immobilized Vn ([1]; soluble Vn added with bacteria): about 60%

Trypsin
Bacterial binding after trypsin treatment of immobilized Vn (immobilized Vn): no binding was obtained | Relative percentage binding of immobilized Vn (S. epidermidis BD5703): 67% | Relative percentage binding of immobilized Vn (S. aureus V8): 70%

fibrinogen
Inhibition of labeled Vn binding to the 52 kDa band (52 kDa protein of BD5703): slightly blocked | Inhibition of labeled Vn binding to the 16 kDa band (16 kDa protein of BD5703): slightly blocked | Inhibition of labeled Vn binding to the 38 kDa band (38 kDa protein of BD5703): slightly blocked

fibronectin
Inhibition of labeled Vn binding to the 52 kDa band (52 kDa protein of BD5703): slightly blocked | Inhibition of labeled Vn binding to the 16 kDa band (16 kDa protein of BD5703): slightly blocked | Inhibition of labeled Vn binding to the 38 kDa band (38 kDa protein of BD5703): slightly blocked

hemopexin: human hemopexin, purified
Inhibition of labeled Vn binding to the 52 kDa band (52 kDa protein of BD5703): slightly blocked | Inhibition of labeled Vn binding to the 16 kDa band (16 kDa protein of BD5703): slightly blocked | Inhibition of labeled Vn binding to the 38 kDa band (38 kDa protein of BD5703): slightly blocked

hyaluronic acid
Inhibition of labeled Vn binding to the 52 kDa band (52 kDa protein of BD5703): inhibited | Inhibition of labeled Vn binding to the 38 kDa band (38 kDa protein of BD5703): inhibited | Effect on BD5703 binding of immobilized Vn (in words) [1]: reduced significantly | Relative binding percentage [1, 5]: 41%

plasminogen: human plasminogen from Sigma
Inhibition of labeled Vn binding to the 52 kDa band (52 kDa protein of BD5703): slightly blocked | Inhibition of labeled Vn binding to the 16 kDa band (16 kDa protein of BD5703): slightly blocked | Inhibition of labeled Vn binding to the 38 kDa band (38 kDa protein of BD5703): slightly blocked

thrombospondin: human thrombospondin
Inhibition of labeled Vn binding to the 52 kDa band (52 kDa protein of BD5703): slightly blocked | Inhibition of labeled Vn binding to the 16 kDa band (16 kDa protein of BD5703): slightly blocked | Inhibition of labeled Vn binding to the 38 kDa band (38 kDa protein of BD5703): slightly blocked
